Experimental data published in patent US5525595A, “3- or 4-glycosyloxybenzopyran derivative and antiallergic agent containing the derivative as active ingredient” (priority 1993, dated 1996).

What was measured:
[1] = system: homologous passive cutaneous anaphylaxis (PCA) reaction; experiment: Effect on homologous passive cutaneous anaphylaxis (PCA) reaction in rats; assay type: in vivo, rats (Male wistar rats); details: Rattus norvegicus, 0.5 h; 100 mg/kg oral, 1 hour before antigen, rats; Table 3
Procedure: This experimental animal model is caused by immediate type allergic reaction, namely, antigen-antibody reaction. In the following, the method of this pharmacological test will be explained.
Method: Male wistar rats (9 weeks old) were intradermally administered 0.05 ml of anti-serum against trinitrophenylated ascaris (TNP-As) into two sites on the shaved dorsal skin. 48 hours later, 3-glycosyloxybenzopyran derivatives and 4-glycosyloxybenzopyran derivatives (test compounds) suspended in 0.5% sodium carboxymethylcellulose (CMCNa) were given orally at a dose of 100 mg/kg to the animals. 1 hour after administration of Test compounds, the animals were induced anaphylaxis by injection of saline (1 ml) dissolving 5 mg of Evans Blue and 1 mg of TNP-As into the tail vein of the animals. 30 minutes after induction of anaphylaxis, animals were anesthetized by ether and killed by bleeding, and were flayed dorsal skin. The leakage of dye was assessed by measuring the diameter (mean of shortest and longest diameter) of the blue spot on the inside surface of dorsal skin. As vehicle control group, only 0.5% CMCNa solution was administered orally, and as positive control group, Tranilast suspended in 0.5% CMCNa were administered orally at a dose of 100 mg/kg to the animals with the same method as the test compounds groups. Each experimental group consisted of 5 rats. [formula] In equation 1: A: leakage of dye in vehicle control group
B: leakage of dye in test compound group or in positive control group
The anti-allergic activity of the compounds of the present invention were compared with that of analogous compounds which were published in the Patent (EP-A-0598117) by PCA reaction. This pharmacological test was performed according to the method described in Test Example 1.

[2] = system: airway resistance in experimental asthma model; experiment: Effect on experimental asthma model in guinea pigs; assay type: in vivo, guinea pigs (Male hadley); details: Cavia porcellus; 100 mg/kg oral, OVA challenge, guinea pigs; Table 7
Procedure: The asthma is typical allergic disease and we carried out this pharmacological test by well known experimental asthma model in guinea pigs in order to confirm that the compounds of the present invention suppress the asthma. In the following, the method of the pharmacological test will be explained.
Method: Male hadley guinea pigs were immunized by intraperitoneal injection of saline (1 ml) containing 5 mg of ovalbumine (OVA) three times at interval of one week. 2 weeks after final immunization, the animals were challenged by inhalation of 1% OVA-saline solution for 1 minute and then the airway resistance of the animals were measured for 30 minutes with PULMOS-1 (Medical Interface Project Station Inc.) after the inhalation. The compounds of the present invention (test compounds) suspended in 0.5% CMCNa were given orally at a dose of 100 mg/kg. As positive control group, Disodium Cromoglicate (DSCG), well known anti-allergic agent, in saline were injected at a dose of 20 mg/kg into the vein of the animals. As vehicle control group, only 0.5% CMCNa solution were given orally. The inhibition (%) of the airway resistance in vehicle control group was calculated according to equation 5 and the result was shown in Table 7. Each experimental group consisted of 5 guinea pigs. [formula] In equation 5: A: Maximum airway resistance in vehicle control group
B: Maximum airway resistance in test compounds group or positive control group

[3] = system: contact dermatitis induced by picryl chloride; experiment: Effect on contact dermatitis induced by picryl chloride in mice (delayed type hypersensitization); assay type: in vivo; details: Mus musculus; 100 mg/kg oral, ear thickness 24 hours after challenge; Table 6; read-out: Inhibition (%) against the increase of ear thickness
Procedure: The delayed type hypersensitization is inhibited by steroid, but can not be effected by known anti-allergic agents. In the following, the method of the pharmacological test will be explained.
Method: Mice, shaved their abdominal skin on previous day, were immunized by applying 0.1 ml of acetone containing 7 mg of picryl chloride to the skin of the abdomen. 7 days after immunization, the thickness of the ear was measured with a dial thickness gauge, then mice were challenged by painting 5 μl of 1% picryl chloride olive oil solution to each side skin of left ear. 24 hours after challenge, the thickness of the left ear was measured again and the increase (%) of thickness was calculated according to equation 2. The compounds of the present invention (test compounds) suspended in 0.5% CMCNa were forcibly administered orally at a dose of 100 mg/kg at 1 hour before and 16 hours after challenge. As vehicle control group, only 0.5% CMCNa solution were administered orally, and as positive control group, Prednisolone, steroid hormone, and Tranilast were administered orally at the doses of 10 mg/kg and 100 mg/kg, respectively.
Increase (%)=(A-B)/B×100 (Equation 2)
A: thickness of the ear at 24 hours after challenge
B: thickness of the ear before challenge
Inhibition(%)=(C-D)/C×100 (equation 3)
C: The increase (%) in vehicle control group
D: The increase (%) in test compounds group or positive control group

Compound	inhibition in vivo at 100 mg/kg [1] [%]	inhibition in vivo at 100 mg/kg [2] [%]	inhibition in vivo at 100 mg/kg [3] [%]
O=C(Oc1ccc2c(O)c(O[C@@H]3O[C@H](CO)[C@@H](O)[C@H](O)[C@H]3O)c(=O)oc2c1)c1ccccc1 [compound 21]	54.4	60.7	53.6
CC(=O)Oc1ccc2c(O[C@@H]3O[C@H](CO)[C@@H](O)[C@H](O)[C@H]3O)c(O)c(=O)oc2c1 [compound 116]	48	55.3	45.1
CCCCCCCCOc1ccc2c(O)c(O[C@@H]3O[C@H](CO)[C@@H](O)[C@H](O)[C@H]3O)c(=O)oc2c1 [compound 16]	62.6	75.8	64
COc1ccc2c(O)c(O[C@H]3O[C@H](CO)[C@@H](O)[C@H](O)[C@@H]3O)c(=O)oc2c1 [compound 10, 7-methoxy-4-hydroxy-3-(α-D-mannopyranosyloxy)-2H-1-benzopyran-2-one]	50.3	49	47.5
COc1ccc2c(O[C@H]3O[C@H](CO)[C@@H](O)[C@H](O)[C@@H]3O)c(O)c(=O)oc2c1 [compound 78]	46.2	50.8	43.1
O=c1oc2cc(O)ccc2c(O[C@@H]2O[C@H](CO)[C@@H](O)[C@H](O)[C@H]2O)c1O [compound 59, 3,7-dihydroxy-4-(β-D-glucopyranosyloxy)-2H-1-benzopyran-2-one]	46.1	49.1	45.6
CCCCOc1ccc2c(O)c(O[C@@H]3O[C@H](CO)[C@@H](O)[C@H](O)[C@H]3O)c(=O)oc2c1 [compound 15]	60.4	73.6	58.5
O=C(Oc1ccc2c(O[C@H]3O[C@H](CO)[C@@H](O)[C@H](O)[C@@H]3O)c(O)c(=O)oc2c1)c1ccccc1 [compound 86]	43	41.2	39.1
CCCCOc1ccc2c(O[C@H]3O[C@H](CO)[C@@H](O)[C@H](O)[C@@H]3O)c(OC(C)=O)c(=O)oc2c1 [compound 88]	45.8	43.5	40.2
CC(C)Oc1ccc2c(O)c(O[C@@H]3O[C@H](CO)[C@@H](O)[C@H](O)[C@H]3O)c(=O)oc2c1 [compound 18]	56.6	70.3	56.9
O=c1oc2cc(O)ccc2c(O[C@@H]2O[C@H](CO)[C@H](O)[C@H](O)[C@H]2O)c1O [compound 91]	40.4	45.1	45.5
COc1ccc2c(O[C@@H]3O[C@H](CO)[C@@H](O)[C@H](O)[C@H]3O)c(O)c(=O)oc2c1 [compound 61, 7-methoxy-3-hydroxy-4-(β-D-glucopyranosyloxy)-2H-1-benzopyran-2-one]	49.2	53.3	50.7
CC(=O)Oc1ccc2c(O)c(O[C@@H]3O[C@H](CO)[C@H](O)[C@H](O)[C@H]3O)c(=O)oc2c1 [compound 42]	52.7	62.6	52.1
COc1ccc2c(O[C@@H]3O[C@H](CO)[C@H](O)[C@H](O)[C@H]3O)c(O)c(=O)oc2c1 [compound 92]	50.2	57.7	52.6
CCCCCCCCOc1ccc2c(O[C@@H]3O[C@H](CO)[C@@H](O)[C@H](O)[C@H]3O)c(O)c(=O)oc2c1 [compound 66]	63.8	74.1	62.5
CC(C)=CCC/C(C)=C/COc1ccc2c(O)c(O[C@@H]3O[C@H](CO)[C@H](O)[C@H](O)[C@H]3O)c(=O)oc2c1 [compound 38]	59.6	73.7	57.6
CCC=CCCOc1ccc2c(O[C@@H]3O[C@H](CO)[C@@H](O)[C@H](O)[C@H]3O)c(O)c(=O)oc2c1 [compound 70]	58.5	67.7	57.6
COc1ccc2c(O)c(O[C@H]3O[C@H](COC(C)=O)[C@@H](OC(C)=O)[C@H](OC(C)=O)[C@@H]3OC(C)=O)c(=O)oc2c1 [compound 8, 7-methoxy-4-hydroxy-3-(tetra-O-acetyl-α-D-mannopyranosyloxy)-2H-1-benzopyran-2-one]	45.2	46.7	45.3
CCCCOc1ccc2c(O[C@@H]3O[C@H](CO)[C@@H](O)[C@H](O)[C@H]3O)c(OC(C)=O)c(=O)oc2c1 [compound 74]	46.8	55.4	47
CC(C)Oc1ccc2c(O)c(O[C@@H]3O[C@H](CO)[C@H](O)[C@H](O)[C@H]3O)c(=O)oc2c1 [compound 36]	56.7	66.4	58.2
O=c1oc2cc(OCc3ccccc3)ccc2c(O[C@@H]2O[C@H](CO)[C@H](O)[C@H](O)[C@H]2O)c1O [compound 104]	44.2	63.3	46.1
COc1ccc2c(OCc3ccccc3)c(O[C@@H]3O[C@H](COC(C)=O)[C@@H](OC(C)=O)[C@H](OC(C)=O)[C@H]3OC(C)=O)c(=O)oc2c1 [compound 3, 7-methoxy-4-benzyloxy-3-(tetra-O-acetyl-β-D-glucopyranosyloxy)-2H-1-benzopyran-2-one]	43.5	40	40.5
CC(=O)Oc1ccc2c(OCc3ccccc3)c(O[C@@H]3O[C@H](COCc4ccccc4)[C@@H](OCc4ccccc4)[C@H](OCc4ccccc4)[C@H]3OCc3ccccc3)c(=O)oc2c1 [compound 12, 4-benzyloxy-7-acetoxy-3-(tetra-O-benzyl-β-D-glucopyranosyloxy)-2H-1-benzopyran-2-one]	41.3	39.2	40.8
CC(=O)Oc1ccc2c(O[C@@H]3O[C@H](CO)[C@H](O)[C@H](O)[C@H]3O)c(O)c(=O)oc2c1 [compound 105]	51.4	58.8	47.8
O=C(Oc1ccc2c(O)c(O[C@H]3O[C@H](CO)[C@@H](O)[C@H](O)[C@@H]3O)c(=O)oc2c1)c1ccccc1 [compound 30]	41.7	47.8	48.7
CCCCCCOc1ccc2c(O[C@@H]3O[C@H](CO)[C@H](O)[C@H](O)[C@H]3O)c(O)c(=O)oc2c1 [compound 120]	64.3	78.9	65.2
